Data on 28 molecules can be found in patent publication US8470820B2, “Nitrogen-containing heteroaryl derivatives” (Hoffman-La Roche Inc., priority 2010, dated 2013).

Bounds are passed on as bounds.

This experiment deals with human PDE10A (Homo sapiens (Human), UniProt Q9Y233). As to the kind of experiment: human PDE10A full length Scintillation Proximity Assay (SPA). The experiment is classed as biochemical. Particulars: 50 nM cGMP and 50 nM [3H]-cGMP, 20 minutes at room temperature, read-out: PDE10A inhibition IC50. How it is done: The following test was carried out in order to determine the activity of the compounds of the present invention. PDE10 activity of the compounds of the present invention was determined using a Scintillation Proximity Assay (SPA)-based method similar to the one previously described (Fawcett, L. et al., Proc Natl Acad Sci USA (2000) 97(7):3702-3707).
Sequence of human PDE10A (Q9Y233 other isoform, or with tags, fused parts or gaps): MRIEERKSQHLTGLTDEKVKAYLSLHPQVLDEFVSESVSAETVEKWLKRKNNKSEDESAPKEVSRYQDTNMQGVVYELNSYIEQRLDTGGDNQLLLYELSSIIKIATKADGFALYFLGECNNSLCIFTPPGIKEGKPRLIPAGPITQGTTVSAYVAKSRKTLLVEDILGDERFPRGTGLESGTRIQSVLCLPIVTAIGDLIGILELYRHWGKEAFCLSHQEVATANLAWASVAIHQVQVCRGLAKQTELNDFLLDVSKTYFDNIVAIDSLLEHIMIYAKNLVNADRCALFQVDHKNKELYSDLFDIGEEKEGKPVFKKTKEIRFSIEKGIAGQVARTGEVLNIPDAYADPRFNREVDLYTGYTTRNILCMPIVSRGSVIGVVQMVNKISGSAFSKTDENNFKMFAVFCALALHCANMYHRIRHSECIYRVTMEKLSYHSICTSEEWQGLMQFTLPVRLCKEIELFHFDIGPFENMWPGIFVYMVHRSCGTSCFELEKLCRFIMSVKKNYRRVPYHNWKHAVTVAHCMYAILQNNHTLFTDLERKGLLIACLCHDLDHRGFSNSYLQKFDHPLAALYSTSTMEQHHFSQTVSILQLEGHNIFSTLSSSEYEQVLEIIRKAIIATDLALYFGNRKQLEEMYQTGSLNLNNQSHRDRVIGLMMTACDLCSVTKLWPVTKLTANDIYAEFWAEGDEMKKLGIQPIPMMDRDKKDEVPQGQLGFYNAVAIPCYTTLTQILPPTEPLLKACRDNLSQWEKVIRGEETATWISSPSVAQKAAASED
The human PDE10A full length assay was performed in 96-well micro titer plates. The reaction mixture of 50 μl contained 20 mM HEPES pH=7.5/10 mM MgCl2/0.05 mg/ml BSA (Sigma cat. # A-7906), 50 nM cGMP (Sigma, cat. # G6129) and 50 nM [^3H]-cGMP (GE Healthcare, cat. # TRK392 S.A. 13.2Ci/mmol), 3.75 ng/well PDE10A enzyme (Enzo Life Science, Lausen, Switzerland cat # SE-534) with or without a specific test compound. A range of concentrations of the potential inhibitor was used to generate data for calculating the concentration of inhibitor resulting in 50% of the effect (e.g. IC50, the concentration of the competitor inhibiting PDE10A activity by 50%). Non-specific activity was tested without the enzyme. The reaction was initiated by the addition of the substrate solution (cGMP and [^3H]-cGMP) and allowed to progress for 20 minutes at room temperature. The reaction was terminated by adding 25 μA of YSi-SPA scintillation beads (GE Healthcare, cat. # RPNQ0150) in 18 mM zinc sulphate solution (stop reagent). After 1 h under shaking, the plate was centrifuged one minute at 170 g to allow beads to settle. Afterwards, radioactive counts were measured on a Perkin Elmer TopCount Scintillation plate reader.
A word on the IC50: it is the midpoint of a concentration-inhibition curve. For the molecule `Cc1ccc(Nc2cncnc2)c(C(=O)Nc2ccn(-c3ccccc3)n2)n1` [Example 1, 6-Methyl-3-(pyrimidin-5-ylamino)-pyridine-2-carboxylic acid (1-phenyl-1H-pyrazol-3-yl)-amide], the IC50 is 90 nM.

Turning to `Cc1ccc(Nc2cncnc2)c(C(=O)Nc2ccn(-c3ccccn3)n2)n1` [Example 4, 6-Methyl-3-(pyrimidin-5-ylamino)-pyridine-2-carboxylic acid (1-pyridin-2-yl-1H-pyrazol-3-yl)-amide], the half-inhibitory concentration (IC50) stood at 368 nM.

In the case of `Cc1ccc(Nc2cncnc2)c(C(=O)Nc2ccn(-c3ccncc3)n2)n1` [Example 5, 6-Methyl-3-(pyrimidin-5-ylamino)-pyridine-2-carboxylic acid (1-pyridin-4-yl-1H-pyrazol-3-yl)-amide], the IC50 is 48 nM.

On to `O=C(Nc1ccn(-c2ccc(F)cc2)n1)c1nc(C2CC2)ccc1Nc1cncnc1` [Example 6, 6-Cyclopropyl-3-(pyrimidin-5-ylamino)-pyridine-2-carboxylic acid [1-(4-fluoro-phenyl)-1H-pyrazol-3-yl]-amide], for which the IC50 turned out to be 23 nM.

Consider `O=C(Nc1ccn(-c2ccncc2)n1)c1nc(C2CC2)ccc1Nc1cncnc1` [Example 7, 6-Cyclopropyl-3-(pyrimidin-5-ylamino)-pyridine-2-carboxylic acid (1-pyridin-4-yl-1H-pyrazol-3-yl)-amide], for which the IC50 came to 10 nM.

Turning to `Cn1nc(-c2ccccn2)cc1NC(=O)c1nc(C2CC2)ccc1Nc1cncnc1` [Example 8, 6-Cyclopropyl-3-(pyrimidin-5-ylamino)-pyridine-2-carboxylic acid (2-methyl-5-pyridin-2-yl-2H-pyrazol-3-yl)-amide], the IC50 is 5 nM.

Take `O=C(Nc1cc(-c2ccccc2)nn1CCO)c1nc(C2CC2)ccc1Nc1cncnc1` [Example 9, 6-Cyclopropyl-3-(pyrimidin-5-ylamino)-pyridine-2-carboxylic acid [2-(2-hydroxy-ethyl)-5-phenyl-2H-pyrazol-3-yl]-amide]: the IC50 is 122 nM.

As to `O=C(Nc1cc(-c2ccccn2)nn1CCO)c1nc(C2CC2)ccc1Nc1cncnc1` [Example 10, 6-Cyclopropyl-3-(pyrimidin-5-ylamino)-pyridine-2-carboxylic acid [2-(2-hydroxy-ethyl)-5-pyridin-2-yl-2H-pyrazol-3-yl]-amide], the IC50 was found to be 2 nM.

As to `COCc1ccc(Nc2cncnc2)c(C(=O)Nc2cc(-c3ccccn3)nn2CCO)n1` [Example 11, 6-Methoxymethyl-3-(pyrimidin-5-ylamino)-pyridine-2-carboxylic acid [2-(2-hydroxy-ethyl)-5-pyridin-2-yl-2H-pyrazol-3-yl]-amide], the IC50 amounted to 5 nM.

With `CN(C)CCn1nc(-c2ccccn2)cc1NC(=O)c1nc(C2CC2)ccc1Nc1cncnc1` [Example 12, 6-Cyclopropyl-3-(pyrimidin-5-ylamino)-pyridine-2-carboxylic acid [2-(2-dimethylamino-ethyl)-5-pyridin-2-yl-2H-pyrazol-3-yl]-amide], the concentration for half-maximal inhibition (IC50) amounted to 1 nM.

With `COCc1ncc(Nc2cncnc2)c(C(=O)Nc2cc(-c3ccccn3)nn2C)n1` [Example 13, 2-Methoxymethyl-5-(pyrimidin-5-ylamino)-pyrimidine-4-carboxylic acid (2-methyl-5-pyridin-2-yl-2H-pyrazol-3-yl)-amide], the IC50 came out at 256 nM.

Take `O=C(Nc1cc(-c2ccccn2)nn1C1CCCCC1)c1nc(C2CC2)ccc1Nc1cncnc1` [Example 14, 6-Cyclopropyl-3-(pyrimidin-5-ylamino)-pyridine-2-carboxylic acid (2-cyclohexyl-5-pyridin-2-yl-2H-pyrazol-3-yl)-amide]: the IC50 was 1 nM.

Consider `CCOC(=O)Cn1nc(-c2ccccn2)cc1NC(=O)c1nc(C2CC2)ccc1Nc1cncnc1` [Example 15, (5-{[6-Cyclopropyl-3-(pyrimidin-5-ylamino)-pyridine-2-carbonyl]-amino}-3-pyridin-2-yl-pyrazol-1-yl)-acetic acid ethyl ester], for which the IC50 stood at 4 nM.

On to `O=C(Nc1cc(-c2ccccn2)nn1CCN1CCOCC1)c1nc(C2CC2)ccc1Nc1cncnc1` [Example 16, 6-Cyclopropyl-3-(pyrimidin-5-ylamino)-pyridine-2-carboxylic acid [2-(2-morpholin-4-yl-ethyl)-5-pyridin-2-yl-2H-pyrazol-3-yl]-amide], for which the half-inhibitory concentration (IC50) came to 2 nM.

Regarding `O=C(Nc1cc(-c2ccccn2)nn1CCc1ccccc1)c1nc(C2CC2)ccc1Nc1cncnc1` [Example 17, 6-Cyclopropyl-3-(pyrimidin-5-ylamino)-pyridine-2-carboxylic acid (2-phenethyl-5-pyridin-2-yl-2H-pyrazol-3-yl)-amide], the IC50 was 5 nM.

In the case of `CC(C)(C)n1nc(-c2ccccn2)cc1NC(=O)c1nc(C2CC2)ccc1Nc1cncnc1` [Example 18, 6-Cyclopropyl-3-(pyrimidin-5-ylamino)-pyridine-2-carboxylic acid (2-tert-butyl-5-pyridin-2-yl-2H-pyrazol-3-yl)-amide], the IC50 was 13 nM.

In the case of `CCc1ccc(Nc2cncnc2)c(C(=O)Nc2cc(-c3ccccn3)nn2C)n1` [Example 19, 6-Ethyl-3-(pyrimidin-5-ylamino)-pyridine-2-carboxylic acid (2-methyl-5-pyridin-2-yl-2H-pyrazol-3-yl)-amide], the IC50 is 2 nM.

In the case of `O=C(Nc1cc(-c2ccccn2)nn1C1CCOCC1)c1nc(C2CC2)ccc1Nc1cncnc1` [Example 20, 6-Cyclopropyl-3-(pyrimidin-5-ylamino)-pyridine-2-carboxylic acid [5-pyridin-2-yl-2-(tetrahydro-pyran-4-yl)-2H-pyrazol-3-yl]-amide], the IC50 stood at 1 nM.

Consider `Cn1nc(-c2ccccn2)cc1NC(=O)c1nc(C2CC2)cnc1Nc1cncnc1` [Example 21, 6-Cyclopropyl-3-(pyrimidin-5-ylamino)-pyrazine-2-carboxylic acid (2-methyl-5-pyridin-2-yl-2H-pyrazol-3-yl)-amide], for which the IC50 was determined as 4 nM.

For the molecule `O=C(Nc1cc(-c2ccccn2)nn1CC(F)(F)F)c1nc(C2CC2)ccc1Nc1cncnc1` [Example 22, 6-Cyclopropyl-3-(pyrimidin-5-ylamino)-pyridine-2-carboxylic acid [5-pyridin-2-yl-2-(2,2,2-trifluoro-ethyl)-2H-pyrazol-3-yl]-amide], the IC50 worked out at 2 nM.

As for `CCCn1nc(-c2ccccn2)cc1NC(=O)c1nc(C2CC2)ccc1Nc1cncnc1` [Example 23, 6-Cyclopropyl-3-(pyrimidin-5-ylamino)-pyridine-2-carboxylic acid (2-propyl-5-pyridin-2-yl-2H-pyrazol-3-yl)-amide], the IC50 was found to be 2 nM.

Turning to `O=C(Nc1cc(-c2cccc(Cl)n2)nn1CCO)c1nc(C2CC2)ccc1Nc1cncnc1` [Example 24, 6-Cyclopropyl-3-(pyrimidin-5-ylamino)-pyridine-2-carboxylic acid [5-(6-chloro-pyridin-2-yl)-2-(2-hydroxy-ethyl)-2H-pyrazol-3-yl]-amide], the 50% inhibitory concentration (IC50) worked out at 1 nM.

With `O=C(Nc1cc(-c2ccc3ccccc3n2)nn1CCO)c1nc(C2CC2)ccc1Nc1cncnc1` [Example 25, 6-Cyclopropyl-3-(pyrimidin-5-ylamino)-pyridine-2-carboxylic acid [2-(2-hydroxy-ethyl)-5-quinolin-2-yl-2H-pyrazol-3-yl]-amide], the IC50 is below 1 nM.

Regarding `O=C(Nc1cc(-c2ccc(Cl)cn2)nn1CCO)c1nc(C2CC2)ccc1Nc1cncnc1` [Example 26, 6-Cyclopropyl-3-(pyrimidin-5-ylamino)-pyridine-2-carboxylic acid [5-(5-chloro-pyridin-2-yl)-2-(2-hydroxy-ethyl)-2H-pyrazol-3-yl]-amide], the 50% inhibitory concentration (IC50) came to 2 nM.

On to `CC(C)n1nc(-c2ccccn2)cc1NC(=O)c1nc(C2CC2)ccc1Nc1cncnc1` [Example 27, 6-Cyclopropyl-3-(pyrimidin-5-ylamino)-pyridine-2-carboxylic acid (2-isopropyl-5-pyridin-2-yl-2H-pyrazol-3-yl)-amide], for which the IC50 came out at 3 nM.

With `CC(C)Cn1nc(-c2ccccn2)cc1NC(=O)c1nc(C2CC2)ccc1Nc1cncnc1` [Example 28, 6-Cyclopropyl-3-(pyrimidin-5-ylamino)-pyridine-2-carboxylic acid (2-isobutyl-5-pyridin-2-yl-2H-pyrazol-3-yl)-amide], the IC50 was determined as 1 nM.

In the case of `O=C(Nc1cc(-c2ccccn2)nn1Cc1ccccc1)c1nc(C2CC2)ccc1Nc1cncnc1` [Example 29, 6-Cyclopropyl-3-(pyrimidin-5-ylamino)-pyridine-2-carboxylic acid (2-benzyl-5-pyridin-2-yl-2H-pyrazol-3-yl)-amide], the IC50 was 2 nM.

Turning to `CCn1nc(-c2ccccn2)cc1NC(=O)c1nc(C2CC2)ccc1Nc1cncnc1` [Example 30, 6-Cyclopropyl-3-(pyrimidin-5-ylamino)-pyridine-2-carboxylic acid (2-ethyl-5-pyridin-2-yl-2H-pyrazol-3-yl)-amide], the IC50 was 5 nM.
